Assay results: article PMC3388080 (PLoS ONE, 2012)

What was measured:
Format in all cases: in vivo, rat
[1] = tested on: male Sprague-Dawley rats; test: Rodent EEG studies, all three studies together
Description: (§1) All rodent electroencephalograph (EEG) studies were performed at SRI International. Three groups of eight male Sprague-Dawley rats (300±25 g; Charles River, Wilmington, MA) were implanted with chronic recording devices (F40-EET, Data Sciences Inc., St Paul, MN) for continuous recordings of EEG, electromyograph (EMG), core body temperature (Tcore), and LMA via telemetry as previously described. Data recording and scoring were performed as previously reported (see also Supplemental Material and Methods). The EEG and EMG data were scored in 10 sec epochs for waking (W), rapid eye movement sleep (REM), and non-REM sleep (NR). Tcore and LMA (counts per minute) were analyzed as hourly means. Data from the EEG studies are reported in hourly means such that the hourly time ZT1 refers to the hour between time points ZT0 and ZT1.
(§2) For each of the three separate studies, a repeated measures counter-balanced design was employed in which each rat received five separate dosings. […] All dosings were administered ip in a volume of 2 ml/kg. A minimum of 3 d elapsed between doses. Dosing occurred during the middle of the rats’ normal active period at the start of ZT19 and was typically completed within 10 min. Animals were continuously recorded for 6 h prior to dosing and for 18 h following dosing.

[2] = tested on: male Sprague-Dawley rats; test: EEG/EMG/Tcore/LMA telemetry sleep study 1 (SB-334867 vs ZOL); conditions: 7.5 mg/kg ip
Description: as §1, §2

[3] = tested on: male Sprague-Dawley rats; test: EEG/EMG/Tcore/LMA telemetry sleep study 2 (EMPA vs ZOL); conditions: ZOL 10 mg/kg ip
Description: as §1, §2

[4] = tested on: male Sprague-Dawley rats; test: EEG/EMG/Tcore/LMA telemetry sleep study 3 (almorexant vs ZOL); conditions: ZOL 10 mg/kg ip
Description: as §1, §2

For `Cc1ccc(-c2nc3ccc(C)cn3c2CC(=O)N(C)C)cc1` [ZOL, N,N,6-Trimehtyl-2-(methylphenyl)-imidazol[1,2-a]pyridine-3-acetamide], the “NR latency (in words)” value ([1]; ZOL 7.5 or 10 mg/kg ip, all three experiments) was “decrease in NR latency”, the “cumulative NR (in words)” value ([1]; all three experiments) was “increased cumulative NR” and the “cumulative REM (in words)” value ([1]; all three experiments) was “decreased cumulative REM”. The “Tcore (in words)” value ([1]; all three studies, followed by rebound increase in the light period) was “largest declines in Tcore”, the “EEG delta power during NR (in words)” value ([1]; compared to vehicle control) was “significant effects on EEG delta power during NR” and the NR bout duration ([2]; 6 h Average) was 1.63 ± 0.07. For the same compound, the REM bout duration ([2]; 6 h Average) was 0.99 ± 0.09, the W bout duration ([2]; 6 h Average) was 4.50 ± 0.41 and the “Number of NR bouts” value ([2]; 6 h Total) was 62.88 ± 3.98. For the same compound, the “Number of REM bouts” value ([2]; 6 h Total) was 13.13 ± 1.32, the “Number of W bouts” value ([2]; 6 h Total) was 56.0 ± 4.43 and the NR bout duration ([2]; ZT19) was 3.33 ± 0.78. The “Number of NR bouts” value ([2]; ZT19) was 7.50 ± 1.43, the “Number of REM bouts” value ([2]; ZT19) was 1.38 ± 0.46 and the “Number of W bouts” value ([2]; ZT19) was 6.75 ± 1.31. The REM bout duration ([2]; ZT19) was 0.77 ± 0.20, the NR bout duration ([2]; ZT20) was 2.95 ± 0.43 and the “Number of NR bouts” value ([2]; ZT20) was 7.75 ± 1.29. For the same compound, the “Number of REM bouts” value ([2]; ZT20) was 0.88 ± 0.48, the “Number of W bouts” value ([2]; ZT20) was 6.00 ± 0.82 and the REM bout duration ([2]; ZT20) was 0.76 ± 0.19. For the same compound, the NR bout duration ([2]; ZT21) was 1.87 ± 0.20, the “Number of NR bouts” value ([2]; ZT21) was 17.25 ± 2.00 and the “Number of REM bouts” value ([2]; ZT21) was 4.50 ± 0.78. For the same compound, the “Number of W bouts” value ([2]; ZT21) was 12.00 ± 1.95, the REM bout duration ([2]; ZT21) was 1.28 ± 0.11 and the W bout duration ([2]; ZT21) was 2.44 ± 0.75. For the same compound, the NR bout duration ([2]; ZT22) was 1.01 ± 0.10, the “Number of NR bouts” value ([2]; ZT22) was 14.88 ± 1.88 and the “Number of REM bouts” value ([2]; ZT22) was 1.25 ± 0.75. The “Number of W bouts” value ([2]; ZT22) was 14.75 ± 2.49, the W bout duration ([2]; ZT22) was 3.30 ± 0.66 and the NR bout duration ([2]; ZT23) was 0.82 ± 0.10. For the same compound, the “Number of NR bouts” value ([2]; ZT23) was 7.25 ± 1.06, the “Number of REM bouts” value ([2]; ZT23) was 1.00 ± 0.38 and the “Number of W bouts” value ([2]; ZT23) was 7.75 ± 1.19. The REM bout duration ([2]; ZT23) was 0.72 ± 0.26, the NR bout duration ([2]; ZT24) was 0.84 ± 0.09 and the “Number of NR bouts” value ([2]; ZT24) was 8.25 ± 1.75. For the same compound, the “Number of W bouts” value ([2]; ZT24) was 7.88 ± 1.63, the REM bout duration ([2]; ZT24) was 0.86 ± 0.24 and the W bout duration ([2]; ZT24) was 12.51 ± 0.82. For the same compound, the NR bout duration ([3]; 6 h Average) was 1.80 ± 0.13, the REM bout duration ([3]; 6 h Average) was 0.88 ± 0.07 and the W bout duration ([3]; 6 h Average) was 3.94 ± 0.29. The “Number of NR bouts” value ([3]; 6 h Total) was 73.70 ± 4.34, the “Number of REM bouts” value ([3]; 6 h Total) was 12.10 ± 1.30 and the “Number of W bouts” value ([3]; 6 h Total) was 55.80 ± 3.84. The NR bout duration ([3]; ZT19) was 3.89± 0.68, the “Number of NR bouts” value ([3]; ZT19) was 8.90 ± 1.06 and the “Number of REM bouts” value ([3]; ZT19) was 0.60± 0.31. For the same compound, the “Number of W bouts” value ([3]; ZT19) was 8.10± 0.97, the REM bout duration ([3]; ZT19) was 0.65± 0.16 and the W bout duration ([3]; ZT19) was 3.64± 0.51. For the same compound, the NR bout duration ([3]; ZT20) was 3.13± 0.44, the “Number of NR bouts” value ([3]; ZT20) was 11.60± 1.38 and the “Number of REM bouts” value ([3]; ZT20) was 1.10± 0.48. The “Number of W bouts” value ([3]; ZT20) was 8.60± 1.59, the REM bout duration ([3]; ZT20) was 0.96± 0.27 and the W bout duration ([3]; ZT20) was 3.23± .037. For the same compound, the NR bout duration ([3]; ZT21) was 1.81± 0.27, the “Number of NR bouts” value ([3]; ZT21) was 16.40± 2.10 and the “Number of REM bouts” value ([3]; ZT21) was 3.30± 0.75. For the same compound, the “Number of W bouts” value ([3]; ZT21) was 11.00± 1.74, the REM bout duration ([3]; ZT21) was 0.66± 0.09 and the W bout duration ([3]; ZT21) was 3.10± .059. The NR bout duration ([3]; ZT22) was 1.34± 0.17, the “Number of NR bouts” value ([3]; ZT22) was 16.10± 1.11 and the “Number of REM bouts” value ([3]; ZT22) was 4.80± 0.55. For the same compound, the “Number of W bouts” value ([3]; ZT22) was 12.10± 0.85, the REM bout duration ([3]; ZT22) was 0.97± 0.10 and the W bout duration ([3]; ZT22) was 2.59± 0.31. The NR bout duration ([3]; ZT23) was 0.98± 0.11, the “Number of NR bouts” value ([3]; ZT23) was 13.00± 1.64 and the “Number of REM bouts” value ([3]; ZT23) was 1.90± 0.35. The “Number of W bouts” value ([3]; ZT23) was 8.90± 1.15, the W bout duration ([3]; ZT23) was 5.59 ±0.93 and the NR bout duration ([3]; ZT24) was 0.92± 0.20. For the same compound, the “Number of NR bouts” value ([3]; ZT24) was 7.50± 1.58, the “Number of REM bouts” value ([3]; ZT24) was 0.40± 0.22 and the “Number of W bouts” value ([3]; ZT24) was 6.20± 1.31. For the same compound, the REM bout duration ([3]; ZT24) was 0.58± 0.14, the W bout duration ([3]; ZT24) was 12.90± 3.56 and the NR bout duration ([4]; 6 h Average) was 1.99 ± 0.16. The REM bout duration ([4]; 6 h Average) was 0.97 ± 0.12, the W bout duration ([4]; 6 h Average) was 2.88 ± 0.16 and the “Number of NR bouts” value ([4]; 6 h Total) was 77.63 ± 3.56. For the same compound, the “Number of REM bouts” value ([4]; 6 h Total) was 7.38 ± 1.68, the “Number of W bouts” value ([4]; 6 h Total) was 68.00 ± 4.23 and the NR bout duration ([4]; ZT19) was 3.53 ± 0.71. For the same compound, the “Number of REM bouts” value ([4]; ZT19) was 0.50 ± 0.27, the “Number of W bouts” value ([4]; ZT19) was 8.75 ± 1.56 and the REM bout duration ([4]; ZT19) was 0.33 ± 0.10. The W bout duration ([4]; ZT19) was 4.15 ± 0.82, the NR bout duration ([4]; ZT20) was 2.90 ± 0.19 and the “Number of NR bouts” value ([4]; ZT20) was 11.63 ± 1.36. The “Number of REM bouts” value ([4]; ZT20) was 0.50 ± 0.38, the “Number of W bouts” value ([4]; ZT20) was 10.00 ± 0.71 and the REM bout duration ([4]; ZT20) was 2.25 ± 0.25. For the same compound, the W bout duration ([4]; ZT20) was 2.31 ± 0.33, the NR bout duration ([4]; ZT21) was 2.84 ± 0.34 and the “Number of NR bouts” value ([4]; ZT21) was 11.88 ± 1.60. For the same compound, the “Number of W bouts” value ([4]; ZT21) was 10.25 ± 1.56, the W bout duration ([4]; ZT21) was 2.69 ± 0.42 and the NR bout duration ([4]; ZT22) was 2.27 ± 0.44. For the same compound, the “Number of NR bouts” value ([4]; ZT22) was 13.50 ± 1.88, the “Number of REM bouts” value ([4]; ZT22) was 2.50 ± 0.82 and the “Number of W bouts” value ([4]; ZT22) was 10.50 ± 1.21. The W bout duration ([4]; ZT22) was 3.13 ± 0.59, the NR bout duration ([4]; ZT23) was 1.29 ± 0.20 and the “Number of NR bouts” value ([4]; ZT23) was 17.25 ± 3.27. For the same compound, the “Number of REM bouts” value ([4]; ZT23) was 1.75 ± 0.41, the “Number of W bouts” value ([4]; ZT23) was 15.13 ± 3.17 and the W bout duration ([4]; ZT23) was 3.85 ± 1.44. For the same compound, the NR bout duration ([4]; ZT24) was 1.03 ± 0.12, the “Number of NR bouts” value ([4]; ZT24) was 13.13 ± 2.37 and the “Number of REM bouts” value ([4]; ZT24) was 1.00 ± 0.42. For the same compound, the “Number of W bouts” value ([4]; ZT24) was 12.63 ± 2.40, the REM bout duration ([4]; ZT24) was 0.66 ± 0.29 and the W bout duration ([4]; ZT24) was 4.15 ± 0.83.
